This is an account of results in patent publication US11999739B2, “Antimicrobials methods of making and using the same” (BIOVERSYS AG, priority 2016, dated 2024).

Experiment [1] relates to Staphylococcus aureus (S. aureus) 11540 strain. The experiment in a line: Standard microdilution MIC assay, S. aureus. In kind it is cell-based. Put shortly:
(§1)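 Broth microdilution per CLSI M7-A8 guidelines, with reference-strain quality control run in the same design; MIC determined per strain. Activity scored +/− against a 16 micrograms/mL cutoff.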
A general note: In broth dilution the organism is exposed to a series of concentrations in liquid medium.

Experiment [2] relates to Escherichia coli strain ATCC25922. The experiment in a line: Standard microdilution MIC assay, E. coli. In kind it is cell-based. The method, boiled down: as §1

One may read the MIC as the least concentration at which growth counts as inhibited. Read a high MIC as a need for much substance.

With `C=C[C@@H](CCNC(C)=N)NCc1ccc(-n2cc3cc(-c4cc(CCCC5(N)CC5)cc(Cl)c4F)[nH]c3nc2=O)cc1` [Compound 146], the MIC in experiment [1] and in experiment [2] was at most 16 µg/mL in each case.
For `C=C[C@@H](CCNC(C)=N)NCc1ccc(-n2cc3cc(-c4cc(CCC[C@@H](N)C5CC5)cc(Cl)c4F)[nH]c3nc2=O)cc1` [Compound 87], the MIC in experiment [1] and in experiment [2] was at most 16 µg/mL in each case.
As to `C=C[C@@H](CCNC(=N)CSC)NCc1ccc(-n2cc3cc(-c4cc(CCC[C@H](C)N)cc(Cl)c4F)[nH]c3nc2=O)cc1` [Compound 59], the MIC in experiment [1] and in experiment [2] was at most 16 µg/mL throughout.
With `C=CC(CCNC(=N)CC(F)(F)F)NCc1ccc(-n2cc3cc(-c4cc(CCC[C@H](C)N)cc(Cl)c4F)[nH]c3nc2=O)cc1` (stereo partly shown) [Compound 16], the MIC in experiment [1] and in experiment [2] was at most 16 µg/mL throughout.
Regarding `C=C[C@H](N)CCCc1cc(Cl)c(F)c(-c2cc3cn(-c4ccc([C@@H]5CCC[C@@H](CCNC(C)=N)N5)c(F)c4)c(=O)nc3[nH]2)c1` [Compound 173], the MIC in experiment [1] and in experiment [2] was at most 16 µg/mL each time.
Regarding `CC(=N)NCCCN[C@@H](CO)c1ccc(-n2cc3cc(-c4cc(CCC[C@@H](N)CF)cc(Cl)c4F)[nH]c3nc2=O)cc1` [Compound 136], the MIC in experiment [1] and in experiment [2] was at most 16 µg/mL in each case.
In the case of `CC(=N)NCC[C@@H]1CCC[C@@H](c2ccc(-n3cc4cc(-c5cc(CCC[C@@H](N)CN)cc(Cl)c5F)[nH]c4nc3=O)cc2)N1` [Compound 289], the MIC in experiment [1] and in experiment [2] was at most 16 µg/mL throughout.
Consider `CC(=N)NCC[C@H]1CNC[C@@H](c2ccc(-n3cc4cc(-c5cc(CCC[C@H](C)N)cc(Cl)c5F)[nH]c4nc3=O)cc2)O1` [Compound 4], for which the MIC in experiment [1] and in experiment [2] was at most 16 µg/mL in each case.
Turning to `CC(=N)NCC[C@@H]1CCC[C@@H](c2ccc(-n3cc4cc(-c5cc(CCC[C@@H](N)C6CC6)cc(C(F)(F)F)c5F)[nH]c4nc3=O)cc2OC(F)(F)F)N1` [Compound 229], the MIC in experiment [1] and in experiment [2] was at most 16 µg/mL each time.
As for `CC(=N)NCC[C@@H]1CCC[C@@H](c2ccc(-n3cc4cc(-c5cc(CCC[C@H](C)N)cc(Cl)c5F)[nH]c4nc3=O)cc2)N1CCn1ccnc1C` [Compound 263], the MIC in experiment [1] and in experiment [2] was at most 16 µg/mL in each case.
For `CC(=N)NCC[C@@H]1CCC[C@@H](c2ccc(-n3cc4cc(-c5cc(CCC[C@@H](N)C6CC6)cc(Cl)c5F)[nH]c4nc3=O)cc2F)N1CCCF` [Compound 332], the MIC in experiment [1] and in experiment [2] was at most 16 µg/mL throughout.
Take `CC(=N)NCC[C@@H]1CCC[C@@H](c2ccc(-n3cc4cc(-c5cc(CCC[C@@H](N)C6CC6)cc(C(F)(F)F)c5F)[nH]c4nc3=O)cc2)N1` [Compound 212]: the MIC in experiment [1] and in experiment [2] was at most 16 µg/mL in each case.
Regarding `C=C[C@H](CCNC(=N)CF)NCc1ccc(-n2cc3cc(-c4cc(CCC[C@@H](N)C(F)(F)F)cc(Cl)c4F)[nH]c3nc2=O)cc1` [Compound 44], the MIC in experiment [1] was at most 16 µg/mL; in experiment [2], over 16 µg/mL.
Turning to `CC(=N)NCC[C@@H]1CCC[C@@H](c2ccc(-n3cc4cc(-c5cc(CCC[C@@H](N)CO)cc(OC(F)(F)F)c5F)[nH]c4nc3=O)cc2OC(F)(F)F)N1` [Compound 231], the MIC in experiment [1] and in experiment [2] was at most 16 µg/mL in each case.
On to `C[C@H](N)CCCc1cc(Cl)c(F)c(-c2cc3cn(-c4ccc(CNCCCNC(=N)CF)c(F)c4)c(=O)nc3[nH]2)c1` [Compound 77], for which the MIC in experiment [1] and in experiment [2] was at most 16 µg/mL in each case.
Take `CSc1cc(-n2cc3cc(-c4cc(CCC[C@H](C)N)cc(Cl)c4F)[nH]c3nc2=O)ccc1[C@@H]1CCC[C@@H](CCNC(C)=N)N1CCCF` [Compound 331]: the MIC in experiment [1] and in experiment [2] was at most 16 µg/mL throughout.
As to `CC(=N)NCC[C@@H]1CCC[C@@H](c2ccc(-n3cc4cc(-c5cc(CCC[C@@H](N)CF)cc(C(F)(F)F)c5F)[nH]c4nc3=O)cc2)N1` [Compound 193], the minimal inhibitory concentration (MIC) in experiment [1] and in experiment [2] was at most 16 µg/mL in each case.
